Several values for one entry are separate records, joined by “and”; a condition that tells them apart may be missing. Equal values may be shown once. Inconclusive results and toxic doses are left out. The calls were made as follows: active = survival T/C of 150% or more; inactive = T/C below 125% in these data.
System: CD2F1 mice, L1210 leukemia ip, survival T/C
Assay: NCI In Vivo Anticancer Drug Screen. Data for tumor model L1210 Leukemia (intraperitoneal) in CD2F1 (CDF1) mice
Details: higher = longer survival
How it was run: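 Read-out first: treated-group measurement over vehicle-control measurement, expressed as a ratio. Animals bore a transplanted tumor line and were dosed with compound or vehicle.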

[1] = endpoint: mean survival time, dose: 100.0 mg/kg/injection, schedule: Q04DX002 (ip), vehicle: saline with Tween-80
[2] = endpoint: mean survival time, dose: 200.0 mg/kg/injection, schedule: Q04DX002 (ip), vehicle: saline with Tween-80
[3] = endpoint: mean survival time, dose: 400.0 mg/kg/injection, schedule: Q04DX002 (ip), vehicle: saline with Tween-80
[4] = endpoint: mean survival time, dose: 25.0 mg/kg/injection, schedule: Q01DX005 (ip), vehicle: distilled water + Tween-80
[5] = endpoint: mean survival time, dose: 50.0 mg/kg/injection, schedule: Q01DX005 (ip), vehicle: distilled water + Tween-80
[6] = endpoint: mean survival time, dose: 100.0 mg/kg/injection, schedule: Q01DX005 (ip), vehicle: distilled water + Tween-80
[7] = endpoint: mean survival time, dose: 200.0 mg/kg/injection, schedule: Q01DX005 (ip), vehicle: distilled water + Tween-80
[8] = endpoint: mean survival time, dose: 100.0 mg/kg/injection, schedule: Q01DX009 (ip), vehicle: saline with Tween-80
[9] = endpoint: mean survival time, dose: 100.0 mg/kg/injection, schedule: Q04DX003 (ip), vehicle: saline with Tween-80
[10] = endpoint: mean survival time, dose: 200.0 mg/kg/injection, schedule: Q01DX009 (ip), vehicle: saline with Tween-80
[11] = endpoint: mean survival time, dose: 200.0 mg/kg/injection, schedule: Q04DX003 (ip), vehicle: saline with Tween-80
[12] = endpoint: mean survival time, dose: 400.0 mg/kg/injection, schedule: Q01DX009 (ip), vehicle: saline with Tween-80
[13] = endpoint: mean survival time, dose: 400.0 mg/kg/injection, schedule: Q04DX003 (ip), vehicle: saline with Tween-80
[14] = endpoint: mean survival time, dose: 100.0 mg/kg/injection, schedule: Q01DX001 (ip), vehicle: Klucel (hydroxypropylcellulose) (HPC)
[15] = endpoint: mean survival time, dose: 200.0 mg/kg/injection, schedule: Q01DX001 (ip), vehicle: Klucel (hydroxypropylcellulose) (HPC)
[16] = endpoint: mean survival time, dose: 400.0 mg/kg/injection, schedule: Q01DX001 (ip), vehicle: Klucel (hydroxypropylcellulose) (HPC)
[17] = endpoint: mean survival time, dose: 100.0 mg/kg/injection, schedule: Q01DX001 (ip), vehicle: saline with Tween-80
[18] = endpoint: mean survival time, dose: 200.0 mg/kg/injection, schedule: Q01DX001 (ip), vehicle: saline with Tween-80
[19] = endpoint: mean survival time, dose: 12.5 mg/kg/injection, schedule: Q01DX005 (ip), vehicle: other
[20] = endpoint: mean survival time, dose: 50.0 mg/kg/injection, schedule: Q01DX005 (ip), vehicle: other
[21] = endpoint: mean survival time, dose: 50.0 mg/kg/injection, schedule: Q01DX009 (ip), vehicle: saline with Tween-80
[22] = endpoint: mean survival time, dose: 50.0 mg/kg/injection, schedule: Q04DX003 (ip), vehicle: saline with Tween-80

Measured: T/C

C/C=C/COc1c(C)cc(C)cc1/C=C/C
inactive: [1] 94 % of control | [2] 94 % of control | [3] 102 % of control

CC1C(=O)OC2C1CCC1(C)C(O)OC(=O)C3(O)OC231 (configuration not stated)
inactive: [1] 104 % of control | [2] 96 % of control | [3] 96 % of control

CC1(C)OCC(C2OC(On3nnc4ccc(Cl)cc43)C3OC(C)(C)OC23)O1 (configuration not stated)
inactive: endpoint: mean survival time, dose: 12.5 mg/kg/injection, schedule: Q01DX005 (ip), vehicle: distilled water + Tween-80 98 % of control | [4] 96 % of control | [5] 105 % of control | [6] 96 % of control | [7] 105 % of control

COc1ccc(OC)c(C=NCCN=Cc2cc(OC)ccc2OC)c1
inactive: [8] 87 % of control | [9] 90 % of control | [10] 95 % of control | [11] 88 % of control | [12] 87 % of control | [13] 87 % of control

O=C(N/N=C/c1ccccc1)c1ccc(Cl)cc1Cl
inactive: [14] 100 % of control | endpoint: mean survival time, dose: 100.0 mg/kg/injection, schedule: Q01DX009 (ip), vehicle: Klucel (hydroxypropylcellulose) (HPC) 100 % of control | [15] 97 % of control | endpoint: mean survival time, dose: 200.0 mg/kg/injection, schedule: Q01DX009 (ip), vehicle: Klucel (hydroxypropylcellulose) (HPC) 94 % of control | [16] 101 % of control | endpoint: mean survival time, dose: 400.0 mg/kg/injection, schedule: Q01DX009 (ip), vehicle: Klucel (hydroxypropylcellulose) (HPC) 91 % of control

C/C=C1/C[C@@H](C)[C@@](C)(O)C(=O)OCC2=CC[N+]3([O-])CC[C@@H](OC1=O)[C@@H]23 (some centres not stated)
inactive: [17] 103 % of control | [18] 97 % of control

COc1cccc(C(=O)O)c1C(=O)O
inactive: [19] 92 % of control | endpoint: mean survival time, dose: 25.0 mg/kg/injection, schedule: Q01DX005 (ip), vehicle: other 92 % of control | [20] 89 % of control | endpoint: mean survival time, dose: 100.0 mg/kg/injection, schedule: Q01DX005 (ip), vehicle: other 98 % of control | endpoint: mean survival time, dose: 200.0 mg/kg/injection, schedule: Q01DX005 (ip), vehicle: other 101 % of control | endpoint: mean survival time, dose: 400.0 mg/kg/injection, schedule: Q01DX005 (ip), vehicle: other 96 % of control

O=[N+]([O-])c1cc2c(c([N+](=O)[O-])c1)OCOC2
inactive: [8] 105 % of control | [10] 96 % of control

CC(=O)OCC1OC(n2ncc3c(N4CC4)ncnc32)C(OC(C)=O)C1OC(C)=O (configuration not stated)
inactive: [4] 97 % of control | [5] 99 % of control | [6] 101 % of control | [7] 100 % of control | endpoint: mean survival time, dose: 400.0 mg/kg/injection, schedule: Q01DX005 (ip), vehicle: distilled water + Tween-80 97 % of control

COc1cc(Cl)ccc1NC(=O)Oc1ccc(Cl)cc1Br
inactive: [21] 96 % of control | [8] 96 % of control | [10] 96 % of control

N#CCc1ccc(Cl)c(Cl)c1
inactive: endpoint: mean survival time, dose: 25.0 mg/kg/injection, schedule: Q01DX009 (ip), vehicle: saline with Tween-80 102 % of control | endpoint: mean survival time, dose: 25.0 mg/kg/injection, schedule: Q04DX003 (ip), vehicle: saline with Tween-80 111 % of control | [21] 100 % of control | [22] 94 % of control | [9] 102 % of control

CN(C)c1ccc(C2OC3(CCCCC3)C[N+]23CCCC3)cc1 (configuration not stated)
inactive: endpoint: mean survival time, dose: 3.12 mg/kg/injection, schedule: Q01DX009 (ip), vehicle: saline with Tween-80 101 % of control | endpoint: mean survival time, dose: 6.25 mg/kg/injection, schedule: Q01DX009 (ip), vehicle: saline with Tween-80 97 % of control | endpoint: mean survival time, dose: 12.5 mg/kg/injection, schedule: Q01DX009 (ip), vehicle: saline with Tween-80 97 % of control

O=C(CCl)NC12Nc3ccccc3C1(Cc1ccccc1)CN(C1CCCCC1)C2=O (configuration not stated)
inactive: endpoint: mean survival time, dose: 50.0 mg/kg/injection, schedule: Q04DX002 (ip), vehicle: saline with Tween-80 95 % of control | [17] 100 % of control | [18] 86 % of control | [2] 89 % of control

CC(O)CNc1nc(N)[nH]c(=O)c1[N+](=O)[O-] (configuration not stated)
inactive: [17] 94 % of control | [18] 89 % of control

CC(C)(C)OC(=O)NC(CCCCNC(=O)OCc1ccccc1)C(=O)Oc1ccc([N+](=O)[O-])cc1 (configuration not stated)
inactive: [9] 91 % of control | [11] 86 % of control | [13] 86 % of control

BrC1=C(c2ccccc2)C2CCCCC2C1(Br)c1ccccc1 (configuration not stated)
inactive: [14] 98 % of control | [15] 102 % of control | [16] 102 % of control

CCc1ccc(C)[nH]c1=S
inactive: [21] 105 % of control | [17] 102 % of control | [8] 98 % of control | [18] 102 % of control | [10] 98 % of control

N#CC(C(=O)N1CCCC1)=C(S)S
inactive: [8] 102 % of control | [9] 100 % of control | [10] 101 % of control | [11] 100 % of control | [12] 102 % of control | [13] 103 % of control

O=C(NC(=O)c1cn(C2OC(CO)C(O)C2O)nn1)Nc1ccc(Cl)cc1 (configuration not stated)
inactive: [19] 93 % of control | [20] 90 % of control

CCC(=O)Nc1cccc(OC(=O)NC(C)(C)CC(C)(C)C)c1
inactive: [17] 98 % of control | [18] 98 % of control | endpoint: mean survival time, dose: 400.0 mg/kg/injection, schedule: Q01DX001 (ip), vehicle: saline with Tween-80 100 % of control

c1ccc(-c2nn(-c3ccccc3)[n+](-c3ccccc3)n2)cc1
inactive: endpoint: mean survival time, dose: 1.25 mg/kg/injection, schedule: Q01DX009 (ip), vehicle: saline with Tween-80 100 % of control | endpoint: mean survival time, dose: 2.5 mg/kg/injection, schedule: Q01DX009 (ip), vehicle: saline with Tween-80 100 % of control | endpoint: mean survival time, dose: 5.0 mg/kg/injection, schedule: Q01DX009 (ip), vehicle: saline with Tween-80 104 % of control | endpoint: mean survival time, dose: 5.0 mg/kg/injection, schedule: Q04DX003 (ip), vehicle: saline 95 % of control

CCCCCC(/C=C/C1C=CC(=O)C1C/C=C/CCCC(=O)OC)OC(C)=O (configuration not stated)
inactive: [9] 95 % of control | [11] 100 % of control | [13] 95 % of control

CC(C)CC(NC(=O)C(CSC(c1ccccc1)(c1ccccc1)c1ccccc1)NC(c1ccccc1)(c1ccccc1)c1ccccc1)C(=O)O (configuration not stated)
inactive: endpoint: mean survival time, dose: 50.0 mg/kg/injection, schedule: Q01DX009 (ip), vehicle: saline 97 % of control | endpoint: mean survival time, dose: 100.0 mg/kg/injection, schedule: Q01DX009 (ip), vehicle: saline 91 % of control | endpoint: mean survival time, dose: 200.0 mg/kg/injection, schedule: Q01DX009 (ip), vehicle: saline 92 % of control | endpoint: mean survival time, dose: 400.0 mg/kg/injection, schedule: Q01DX009 (ip), vehicle: saline 91 % of control

NC(=O)c1nc(Br)n(C2OC(CO)C(O)C2O)c1N (configuration not stated)
inactive: endpoint: median survival time, dose: 44.0 mg/kg/injection, schedule: Q01DX005 (ip), vehicle: saline 104 % of control | endpoint: median survival time, dose: 88.0 mg/kg/injection, schedule: Q01DX005 (ip), vehicle: saline 101 % of control | endpoint: median survival time, dose: 175.9 mg/kg/injection, schedule: Q01DX005 (ip), vehicle: saline 102 % of control

OCc1cc2ccccc2cc1Br
inactive: endpoint: mean survival time, dose: 50.0 mg/kg/injection, schedule: Q01DX001 (ip), vehicle: saline 89 % of control | endpoint: mean survival time, dose: 100.0 mg/kg/injection, schedule: Q01DX001 (ip), vehicle: saline 93 % of control | endpoint: mean survival time, dose: 200.0 mg/kg/injection, schedule: Q01DX001 (ip), vehicle: saline 95 % of control | endpoint: mean survival time, dose: 400.0 mg/kg/injection, schedule: Q01DX001 (ip), vehicle: saline 100 % of control

Oc1ccc(-c2ccc(O)cc2)cc1
inactive: [22] 100 % of control | [9] 101 % of control and 107 % of control | [11] 109 % of control | [13] 121 % of control

Nc1ccc(N=Nc2ccccc2)c(N)n1
inactive: [8] 98 % of control | [10] 98 % of control | [12] 100 % of control
